Results on 13 compounds are retold here after ChEMBL document CHEMBL1147602, “DNA binding ligands targeting drug-resistant Gram-positive bacteria. Part 1: Internal benzimidazole derivatives” (Bioorg Med Chem Lett, 2004).

One may read the Kd as the concentration at which binding is half-saturated. A lower Kd goes with tighter binding.

Assay [1] has as its system Staphylococcus aureus. Put plainly: Antibacterial activity against methicillin-sensitive Staphylococcus aureus ATCC 13709 strain. The assay is classed as functional.
Assay [2] concerns Streptococcus pneumoniae. Briefly: Antibacterial activity against penicillin-resistant Streptococcus pneumoniae ATCC 51422 strain. It counts as functional.
The subject of assay [3] is Staphylococcus aureus. Briefly: Antibacterial activity against methicillin-resistant Staphylococcus aureus ATCC 27660 strain. It counts as functional.
Assay [4] relates to Streptococcus pneumoniae. Put plainly: Antibacterial activity against penicillin-sensitive Streptococcus pneumoniae ATCC 49619 strain. It counts as functional.
The subject of assay [5] is Enterococcus faecalis. Briefly: Antibacterial activity against vancomycin-resistant Enterococcus faecalis ATCC 51559 strain. It counts as functional.
Assay [6] has as its system Enterococcus faecalis. Briefly: Antibacterial activity against vancomycin-sensitive Enterococcus faecalis ATCC 29212 strain. It counts as functional.
The subject of another assay is Escherichia coli. Briefly: Antibacterial activity against Escherichia coli ATCC 25922 strain. It counts as functional.
The next assay has as its target Nucleic Acid. Briefly: Dissociation constant for the DNA binding was determined by quantitative DNase I footprint titration. The assay is classed as nucleic-acid assay.
The next assay deals with Mus musculus. Briefly: In vivo protective dose for efficacy against a lethal infection of methicillin-resistant Staphylococcus aureus in a mouse peritoneal sepsis model administered intravenously. It counts as functional.
In assay [7] the test system is Staphylococcus aureus. Put plainly: Antibacterial activity against methicillin-susceptible Staphylococcus aureus ATCC 13709 strain. The assay is classed as functional.
Assay [8] has as its system Enterococcus faecalis. Briefly: Antibacterial activity against vancomycin-susceptible Enterococcus faecalis ATCC 29212 strain. The assay is classed as functional.
Assay [9] has as its system Enterococcus faecalis. Briefly: Antibacterial activity against vancomycin-resistant Enterococcus faecalis ATCC 51559 strain; NA means not analyzed. It counts as functional, organism-based.
For assay [10], the system named is Streptococcus pneumoniae. Briefly: Antibacterial activity against penicillin-resistant Streptococcus pneumoniae ATCC 51422 strain; NA means not analyzed. It counts as functional, organism-based.
Assay [11] concerns Staphylococcus aureus. Briefly: Antibacterial activity against methicillin-susceptible Staphylococcus aureus ATCC 13709 strain; (Range is 1-2 ug/mL). It counts as functional.
A further assay deals with Pseudomonas aeruginosa. Put plainly: Antibacterial activity against Pseudomonas aeruginosa (ATCC 27853) strain; inactive. The assay is classed as functional.
The next assay has as its system Moraxella catarrhalis. Put plainly: Antibacterial activity against Moraxella catarrhalis ATCC 25238 strain. The assay is classed as functional.
The subject of another assay is Haemophilus influenzae. Put plainly: Antibacterial activity against Haemophilus influenzae ATCC 78025 strain. It counts as functional.

In brackets after ≈: the same amount, converted by molar mass. Several values for one entry are separate records, joined by “and”; a condition that tells them apart may be missing. Identical values can stand only once. Activity calls are given as the source filed them. The calls are words filed in the database; no cut-off is given here. Bounds are passed on as bounds.

As for `Cn1cc(NC(=O)c2ccc(Cl)cc2F)cc1C(=O)Nc1cc(-c2nc3cc(C(=O)NCCN4CCOCC4)ccc3[nH]2)n(C)c1`, the MIC against Staphylococcus aureus [1] was found to be 0.25 µg/mL (≈ 0.386 µM); against Streptococcus pneumoniae [2] it was 0.13 µg/mL (≈ 0.201 µM); in the assay on Staphylococcus aureus [3] it was 0.13 µg/mL (≈ 0.201 µM); against Streptococcus pneumoniae [4] it was 0.03 µg/mL (≈ 0.0464 µM); in the assay on Enterococcus faecalis [5], 0.13 µg/mL (≈ 0.201 µM); in the assay on Enterococcus faecalis [6], 0.03 µg/mL (≈ 0.0464 µM). The compound also showed an MIC in the assay with Escherichia coli of 8 µg/mL (≈ 12.4 µM).

As to `Cn1cc(NC(=O)c2sccc2Cl)cc1C(=O)Nc1cc(-c2nc3cc(C(=O)NCCN4CCCCC4)ccc3[nH]2)n(C)c1`, the MIC stood at 2 µg/mL (≈ 3.16 µM) against Staphylococcus aureus [1]; 0.13 µg/mL (≈ 0.205 µM) with Streptococcus pneumoniae [2]; 0.5 µg/mL (≈ 0.79 µM) against Staphylococcus aureus [3]; 0.25 µg/mL (≈ 0.395 µM) in the assay on Streptococcus pneumoniae [4]; 0.5 µg/mL (≈ 0.79 µM) against Enterococcus faecalis [5]; 0.5 µg/mL (≈ 0.79 µM) against Enterococcus faecalis [6]. The compound further returned an MIC against Escherichia coli of more than 32 µg/mL.

Take `Cn1cc(NC(=O)c2cc3ccccc3cn2)cc1-c1nc2cc(C(=O)NCCN3CCOCC3)ccc2[nH]1`: the MIC against Staphylococcus aureus [1] was determined as 0.5 µg/mL (≈ 0.955 µM); against Streptococcus pneumoniae [2], 0.5 µg/mL (≈ 0.955 µM); against Staphylococcus aureus [3] it was 0.5 µg/mL (≈ 0.955 µM); against Streptococcus pneumoniae [4], 0.25 µg/mL (≈ 0.477 µM); against Enterococcus faecalis [5], 1 µg/mL (≈ 1.91 µM); against Enterococcus faecalis [6], 0.5 µg/mL (≈ 0.955 µM). Moreover, the MIC against Escherichia coli was more than 32 µg/mL. Moreover, the Kd at Nucleic Acid is approximately 10 nM.

Turning to `Cn1cc(NC(=O)c2sccc2Cl)cc1C(=O)Nc1cc(-c2nc3cc(C(=O)NCCN4CCOCC4)ccc3[nH]2)n(C)c1`, the Protective dose with Mus musculus is 50 mg/kg and 20 mg/kg. The MIC against Streptococcus pneumoniae [2] amounted to 0.03 µg/mL (≈ 0.0472 µM); against Staphylococcus aureus [7] it was 0.25 µg/mL (≈ 0.394 µM); with Enterococcus faecalis [8], 0.25 µg/mL (≈ 0.394 µM); with Staphylococcus aureus [3] it was 0.25 µg/mL (≈ 0.394 µM); in the assay on Streptococcus pneumoniae [4] it was 0.25 µg/mL (≈ 0.394 µM); against Enterococcus faecalis [5] it was 0.13 µg/mL (≈ 0.205 µM). In the assay on Escherichia coli, this compound gave an MIC of 4 µg/mL (≈ 6.3 µM). On Nucleic Acid, the Kd was less than 0.1 nM.

For `Cn1cc(NC(=O)c2ccc(F)cc2F)cc1C(=O)Nc1cc(-c2nc3cc(C(=O)NCCN4CCOCC4)ccc3[nH]2)n(C)c1`, the MIC against Staphylococcus aureus [1] was found to be 0.25 µg/mL (≈ 0.396 µM); in the assay with Streptococcus pneumoniae [2], 0.06 µg/mL (≈ 0.0951 µM); against Staphylococcus aureus [3] it was 0.13 µg/mL (≈ 0.206 µM); in the assay on Streptococcus pneumoniae [4], 0.06 µg/mL (≈ 0.0951 µM); in the assay with Enterococcus faecalis [5], 0.25 µg/mL (≈ 0.396 µM); in the assay on Enterococcus faecalis [6], 0.06 µg/mL (≈ 0.0951 µM). In the assay on Escherichia coli, this compound had an MIC of 4 µg/mL (≈ 6.34 µM).

For `Cn1cc(NC(=O)c2sccc2Cl)cc1-c1nc2cc(C(=O)NCCN3CCOCC3)ccc2[nH]1`, the MIC against Staphylococcus aureus [1] was 8 µg/mL (≈ 15.6 µM); in the assay on Staphylococcus aureus [3], 8 µg/mL (≈ 15.6 µM); against Streptococcus pneumoniae [4], 4 µg/mL (≈ 7.8 µM); against Enterococcus faecalis [6], 4 µg/mL (≈ 7.8 µM); against Escherichia coli, more than 32 µg/mL. The MIC entry in the assay on Enterococcus faecalis [9] and in the assay on Streptococcus pneumoniae [10] was “inactive” each time. Further, the dissociation constant (Kd) at Nucleic Acid was approximately 500 nM.

With `Cn1cc(NC(=O)c2cc(NC(=O)c3cc(NC(=O)c4sccc4Cl)cn3C)cn2C)cc1C(=O)NCCN1CCOCC1`, the MIC against Staphylococcus aureus [11] was 2 µg/mL (≈ 3.12 µM); against Enterococcus faecalis [8] it was 1 µg/mL (≈ 1.56 µM); against Streptococcus pneumoniae [4] it was 0.13 µg/mL (≈ 0.203 µM); in the assay on Escherichia coli it was more than 32 µg/mL.

`Cn1cc(NC(=O)c2cc3cc4c(cc3s2)OCO4)cc1-c1nc2cc(C(=O)NCCN3CCOCC3)ccc2[nH]1`: the MIC is 32 µg/mL (≈ 55.9 µM) against Pseudomonas aeruginosa; 0.031 µg/mL (≈ 0.0541 µM) with Moraxella catarrhalis; 0.03 µg/mL (≈ 0.0524 µM) against Staphylococcus aureus [1]; 0.06 µg/mL (≈ 0.105 µM) against Streptococcus pneumoniae [2]; 0.03 µg/mL (≈ 0.0524 µM) against Staphylococcus aureus [3]; 0.06 µg/mL (≈ 0.105 µM) in the assay on Haemophilus influenzae. Further, the MIC in the assay with Streptococcus pneumoniae [4] was 0.06 µg/mL (≈ 0.105 µM); in the assay with Enterococcus faecalis [5], 0.03 µg/mL (≈ 0.0524 µM); with Enterococcus faecalis [6], 0.03 µg/mL (≈ 0.0524 µM); against Escherichia coli, 0.5 µg/mL (≈ 0.873 µM).

For `Cn1cc(NC(=O)c2sc3ccccc3c2Cl)cc1C(=O)Nc1cc(-c2nc3cc(C(=O)NCCN4CCOCC4)ccc3[nH]2)n(C)c1`, the MIC with Staphylococcus aureus [1] stood at 0.13 µg/mL (≈ 0.19 µM); against Streptococcus pneumoniae [2], 0.13 µg/mL (≈ 0.19 µM); in the assay with Staphylococcus aureus [3], 0.5 µg/mL (≈ 0.73 µM); in the assay with Streptococcus pneumoniae [4] it was 0.13 µg/mL (≈ 0.19 µM); with Enterococcus faecalis [5], 0.25 µg/mL (≈ 0.365 µM); in the assay with Enterococcus faecalis [6], 0.25 µg/mL (≈ 0.365 µM). This compound gave an MIC in the assay on Escherichia coli of more than 32 µg/mL.

For the compound `Cn1cc(NC(=O)c2ccc(Cl)cc2F)cc1-c1nc2cc(C(=O)NCCN3CCOCC3)ccc2[nH]1`, the MIC in the assay with Staphylococcus aureus [1] was found to be 0.13 µg/mL (≈ 0.248 µM); with Streptococcus pneumoniae [2], 0.03 µg/mL (≈ 0.0571 µM); in the assay with Staphylococcus aureus [3], 0.25 µg/mL (≈ 0.476 µM); against Streptococcus pneumoniae [4] it was 0.03 µg/mL (≈ 0.0571 µM); in the assay on Enterococcus faecalis [5], 0.06 µg/mL (≈ 0.114 µM); with Enterococcus faecalis [6], 0.03 µg/mL (≈ 0.0571 µM). In addition, the MIC in the assay with Escherichia coli was more than 32 µg/mL.

Consider `Cn1cc(NC(=O)c2sc3ccccc3c2Cl)cc1-c1nc2cc(C(=O)NCCN3CCOCC3)ccc2[nH]1`, for which the MIC in the assay on Staphylococcus aureus [1] is 0.25 µg/mL (≈ 0.444 µM); in the assay on Streptococcus pneumoniae [2], 0.25 µg/mL (≈ 0.444 µM); with Staphylococcus aureus [3] it was 0.13 µg/mL (≈ 0.231 µM); in the assay on Streptococcus pneumoniae [4], 0.13 µg/mL (≈ 0.231 µM); in the assay with Enterococcus faecalis [5], 0.25 µg/mL (≈ 0.444 µM); against Enterococcus faecalis [6], 0.5 µg/mL (≈ 0.888 µM). This compound came in with an MIC against Escherichia coli of more than 32 µg/mL.

For the compound `Cn1cc(NC(=O)c2sccc2Cl)cc1C(=O)Nc1cc(-c2nc3cc(C(=O)NCCN4CCSCC4)ccc3[nH]2)n(C)c1`, the MIC amounted to 1 µg/mL (≈ 1.54 µM) in the assay with Staphylococcus aureus [1]; 0.06 µg/mL (≈ 0.0921 µM) with Streptococcus pneumoniae [2]; 0.5 µg/mL (≈ 0.768 µM) in the assay with Staphylococcus aureus [3]; 0.13 µg/mL (≈ 0.2 µM) in the assay on Streptococcus pneumoniae [4]; 0.13 µg/mL (≈ 0.2 µM) against Enterococcus faecalis [5]; 0.13 µg/mL (≈ 0.2 µM) with Enterococcus faecalis [6]. This compound also showed an MIC in the assay with Escherichia coli of more than 32 µg/mL.

Take `Cn1cc(NC(=O)c2ccc3[nH]c(-c4cc(NC(=O)c5sccc5Cl)cn4C)nc3c2)cc1C(=O)NCCN1CCOCC1`: the MIC was 0.13 µg/mL (≈ 0.205 µM) in the assay on Staphylococcus aureus [7], 0.25 µg/mL (≈ 0.394 µM) in the assay on Enterococcus faecalis [8], 0.25 µg/mL (≈ 0.394 µM) in the assay with Streptococcus pneumoniae [4] and more than 32 µg/mL in the assay with Escherichia coli.
